System: brain of rats subjected to severe traumatic brain injury (sTBI)
Experiment: Ingenuity pathway analysis of differentially regulated genes after sTBI (canonical pathways, diseases and molecular functions; Example 4)
Set-up: species or system rat
Conditions: TBI + 5 mg/kg LMW-DS
Description: Pathway analysis of the differentially regulated genes was carried out using the Ingenuity pathway analysis package. The analysis was performed with special reference to pathways and molecular processes and diseases associated with neurodegenerative disease, including dementia, Alzheimer's disease, ALS, TBI and stroke, and with scarring and fibrosis, including glaucoma and normal pressure hydrocephalus (NPH) after subarachnoid haemorrhage.

[1] = 7 days after TBI, relative to control

Substance: sodium salt of dextran sulfate [LMW-DS]
- Effect on diseases or functions annotation: Resorption of bone (2 days after TBI): Inhibited
- Effect on diseases or functions annotation: Secretion of molecule (2 days after TBI): Activated
- Effect on diseases or functions annotation: Size of body (2 days after TBI): Inhibited
- Effect on diseases or functions annotation: Synthesis of hormone (2 days after TBI): Inhibited
- Effect on diseases or functions annotation: Transcription of RNA (2 days after TBI): Inhibited
- Effect on diseases or functions annotation: Transport of molecule (2 days after TBI): Activated
- Effect on diseases or functions annotation: Vasculogenesis (2 days after TBI): Inhibited
- z score, Ingenuity canonical pathway: Acute Phase Response Signaling [1]: 1.89
- z score, Ingenuity canonical pathway: Adrenomedullin signaling pathway [1]: −0.632
- z score, Ingenuity canonical pathway: Cardiac Hypertrophy Signaling [1]: 1
- z score, Ingenuity canonical pathway: Colorectal Cancer Metastasis Signaling [1]: −0.378
- z score, Ingenuity canonical pathway: Dendritic Cell Maturation [1]: 1.897
- z score, Ingenuity canonical pathway: ERK5 Signaling [1]: −0.447
- z score, Ingenuity canonical pathway: ERK/MAPK Signaling [1]: 1
- z score, Ingenuity canonical pathway: Endothelin-1 Signaling [1]: 1.633
- z score, Ingenuity canonical pathway: Fcγ Receptor-mediated Phagocytosis in Macrophages and Monocytes [1]: 2.236
- z score, Ingenuity canonical pathway: GNRH Signaling [1]: 2
- z score, Ingenuity canonical pathway: HMGB1 Signaling [1]: 1.134
- z score, Ingenuity canonical pathway: IL-1 Signaling [1]: 1
- z score, Ingenuity canonical pathway: IL-6 Signaling [1]: 1
- z score, Ingenuity canonical pathway: IL-8 Signaling [1]: 2.646
- z score, Ingenuity canonical pathway: ILK Signaling [1]: 1.89
- z score, Ingenuity canonical pathway: Leukocyte Extravasation Signaling [1]: 1.342
- z score, Ingenuity canonical pathway: Neuroinflammation Signaling Pathway [1]: 1.941
- z score, Ingenuity canonical pathway: Osteoarthritis Pathway [1]: -1
- z score, Ingenuity canonical pathway: PI3K Signaling in B Lymphocytes [1]: 1.89
- z score, Ingenuity canonical pathway: PKCθ Signaling in T Lymphocytes [1]: 2
- z score, Ingenuity canonical pathway: PPAR Signaling [1]: −1.342
- z score, Ingenuity canonical pathway: Phospholipase C Signaling [1]: 1
- z score, Ingenuity canonical pathway: Production of Nitric Oxide and Reactive Oxygen Species in Macrophages [1]: 2.236
- z score, Ingenuity canonical pathway: Protein Kinase A Signaling [1]: −1.342
- z score, Ingenuity canonical pathway: Role of NFAT in Regulation of the Immune Response [1]: 2.53
- z score, Ingenuity canonical pathway: Signaling by Rho Family GTPases [1]: 1
- z score, Ingenuity canonical pathway: Synaptic Long Term Depression [1]: 1
- z score, Ingenuity canonical pathway: Wnt/β-catenin Signaling [1]: −1
- z score, Ingenuity canonical pathway: cAMP-mediated signaling [1]: −2
- z score, Ingenuity canonical pathway: mTOR Signaling [1]: 1
- Diseases or functions annotation: Abdominal adenocarcinoma (7 days after TBI): Activated
- Diseases or functions annotation: Abdominal cancer (7 days after TBI): Inhibited
- Diseases or functions annotation: Abdominal carcinoma (7 days after TBI): Inhibited
- Diseases or functions annotation: Abdominal neoplasm (7 days after TBI): Activated
- Diseases or functions annotation: Adenocarcinoma (7 days after TBI): Inhibited
- Diseases or functions annotation: Angiogenesis (7 days after TBI): Activated
- Diseases or functions annotation: Apoptosis (7 days after TBI): Inhibited
- Diseases or functions annotation: Apoptosis of tumor cell lines (7 days after TBI): Inhibited
- Diseases or functions annotation: Bleeding (7 days after TBI): Inhibited
- Diseases or functions annotation: Breast or colorectal cancer (7 days after TBI): Inhibited
- Diseases or functions annotation: Breast or ovarian cancer (7 days after TBI): Inhibited
- Diseases or functions annotation: Breast or pancreatic cancer (7 days after TBI): Inhibited
- Diseases or functions annotation: Cancer (7 days after TBI): Activated
- Diseases or functions annotation: Cancer of cells (7 days after TBI): Activated
- Diseases or functions annotation: Cancer of secretory structure (7 days after TBI): Activated
- Diseases or functions annotation: Carcinoma (7 days after TBI): Inhibited
- Diseases or functions annotation: Cell cycle progression (7 days after TBI): Activated
- Diseases or functions annotation: Cell death (7 days after TBI): Activated
- Diseases or functions annotation: Cell death of epithelial cells (7 days after TBI): Activated
- Diseases or functions annotation: Cell death of tumor cell lines (7 days after TBI): Inhibited
- Diseases or functions annotation: Cell movement (7 days after TBI): Activated
- Diseases or functions annotation: Cell movement of endothelial cells (7 days after TBI): Activated
- Diseases or functions annotation: Cell movement of myeloid cells (7 days after TBI): Activated
- Diseases or functions annotation: Cell movement of tumor cell lines (7 days after TBI): Activated
- Diseases or functions annotation: Cell survival (7 days after TBI): Activated
- Diseases or functions annotation: Cell viability (7 days after TBI): Activated
- Diseases or functions annotation: Cell viability of tumor cell lines (7 days after TBI): Activated
- Diseases or functions annotation: Cellular homeostasis (7 days after TBI): Activated
- Diseases or functions annotation: Chemotaxis (7 days after TBI): Activated
- Diseases or functions annotation: Concentration of lipid (7 days after TBI): Inhibited
- Diseases or functions annotation: Development of body axis (7 days after TBI): Activated
- Diseases or functions annotation: Development of body trunk (7 days after TBI): Activated
- Diseases or functions annotation: Development of connective tissue cells (7 days after TBI): Activated
- Diseases or functions annotation: Development of epithelial tissue (7 days after TBI): Activated
- Diseases or functions annotation: Development of genitourinary system (7 days after TBI): Inhibited
- Diseases or functions annotation: Development of head (7 days after TBI): Activated
- Diseases or functions annotation: Development of neurons (7 days after TBI): Activated
- Diseases or functions annotation: Development of sensory organ (7 days after TBI): Activated
- Diseases or functions annotation: Development of vasculature (7 days after TBI): Activated
- Diseases or functions annotation: Differentiation of bone (7 days after TBI): Activated
- Diseases or functions annotation: Differentiation of bone cells (7 days after TBI): Activated
- Diseases or functions annotation: Differentiation of connective tissue cells (7 days after TBI): Activated
- Diseases or functions annotation: Digestive organ tumor (7 days after TBI): Inhibited
- Diseases or functions annotation: Digestive system cancer (7 days after TBI): Inhibited
- Diseases or functions annotation: Endocrine gland tumor (7 days after TBI): Inhibited
- Diseases or functions annotation: Expression of RNA (7 days after TBI): Activated
- Diseases or functions annotation: Extracranial solid tumor (7 days after TBI): Activated
- Diseases or functions annotation: Failure of kidney (7 days after TBI): Activated
- Diseases or functions annotation: Formation of eye (7 days after TBI): Activated
- Diseases or functions annotation: Gastrointestinal tumor (7 days after TBI): Inhibited
- Diseases or functions annotation: Genital tumor (7 days after TBI): Activated
- Diseases or functions annotation: Genitourinary carcinoma (7 days after TBI): Activated
- Diseases or functions annotation: Genitourinary tumor (7 days after TBI): Activated
- Diseases or functions annotation: Glucose metabolism disorder (7 days after TBI): Activated
- Diseases or functions annotation: Growth of connective tissue (7 days after TBI): Inhibited
- Diseases or functions annotation: Growth of epithelial tissue (7 days after TBI): Inhibited
- Diseases or functions annotation: Growth of tumor (7 days after TBI): Activated
- Diseases or functions annotation: Head and neck cancer (7 days after TBI): Inhibited
- Diseases or functions annotation: Head and neck tumor (7 days after TBI): Inhibited
- Diseases or functions annotation: Hematologic cancer (7 days after TBI): Inhibited
- Diseases or functions annotation: Hematologic cancer of cells (7 days after TBI): Inhibited
- Diseases or functions annotation: Hematopoietic neoplasm (7 days after TBI): Inhibited
- Diseases or functions annotation: Intestinal tumor (7 days after TBI): Inhibited
- Diseases or functions annotation: Invasion of cells (7 days after TBI): Activated
- Diseases or functions annotation: Leukocyte migration (7 days after TBI): Activated
- Diseases or functions annotation: Lymphatic system tumor (7 days after TBI): Inhibited
- Diseases or functions annotation: Lymphocytic cancer (7 days after TBI): Inhibited
- Diseases or functions annotation: Lymphocytic neoplasm (7 days after TBI): Inhibited
- Diseases or functions annotation: Lymphoid cancer (7 days after TBI): Inhibited
- Diseases or functions annotation: Lymphoma (7 days after TBI): Inhibited
- Diseases or functions annotation: Lymphoproliferative disorder (7 days after TBI): Inhibited
- Diseases or functions annotation: Lymphoreticular neoplasm (7 days after TBI): Inhibited
- Diseases or functions annotation: Malignant genitourinary solid tumor (7 days after TBI): Activated
- Diseases or functions annotation: Malignant solid tumor (7 days after TBI): Activated
- Diseases or functions annotation: Microtubule dynamics (7 days after TBI): Activated
- Diseases or functions annotation: Migration of cells (7 days after TBI): Activated
- Diseases or functions annotation: Migration of endothelial cells (7 days after TBI): Activated
- Diseases or functions annotation: Morbidity or mortality (7 days after TBI): Inhibited
- Diseases or functions annotation: Necrosis (7 days after TBI): Activated
- Diseases or functions annotation: Necrosis of epithelial tissue (7 days after TBI): Activated
- Diseases or functions annotation: Neoplasia of cells (7 days after TBI): Activated
- Diseases or functions annotation: Neoplasia of leukocytes (7 days after TBI): Inhibited
- Diseases or functions annotation: Non-hematological solid tumor (7 days after TBI): Activated
- Diseases or functions annotation: Non-melanoma solid tumor (7 days after TBI): Activated
- Diseases or functions annotation: Nonhematologic malignant neoplasm (7 days after TBI): Inhibited
- Diseases or functions annotation: Obesity (7 days after TBI): Activated
- Diseases or functions annotation: Organismal death (7 days after TBI): Inhibited
- Diseases or functions annotation: Organization of cytoskeleton (7 days after TBI): Activated
- Diseases or functions annotation: Pelvic tumor (7 days after TBI): Activated
- Diseases or functions annotation: Peripheral vascular disease (7 days after TBI): Activated
- Diseases or functions annotation: Proliferation of connective tissue cells (7 days after TBI): Inhibited
- Diseases or functions annotation: Proliferation of epithelial cells (7 days after TBI): Inhibited
- Diseases or functions annotation: Quantity of cells (7 days after TBI): Activated
- Diseases or functions annotation: Quantity of connective tissue (7 days after TBI): Activated
- Diseases or functions annotation: Renal impairment (7 days after TBI): Activated
- Diseases or functions annotation: Secretion of molecule (7 days after TBI): Activated
- Diseases or functions annotation: Sensory system development (7 days after TBI): Inhibited
- Diseases or functions annotation: Size of body (7 days after TBI): Activated
- Diseases or functions annotation: Skin lesion (7 days after TBI): Inhibited
- Diseases or functions annotation: Skin tumor (7 days after TBI): Inhibited
- Diseases or functions annotation: Solid tumor (7 days after TBI): Activated
- Diseases or functions annotation: Synthesis of lipid (7 days after TBI): Activated
- Diseases or functions annotation: Transcription (7 days after TBI): Activated
- Diseases or functions annotation: Transcription of RNA (7 days after TBI): Activated
- Diseases or functions annotation: Transport of molecule (7 days after TBI): Activated
- Diseases or functions annotation: Tumorigenesis of tissue (7 days after TBI): Inhibited
- Diseases or functions annotation: Vasculogenesis (7 days after TBI): Activated

Source: patent US20220128542A1, “TREATMENT EFFICIENCY EVALUATION” (TX MEDIC AB, priority 2019, published 2022)
